# In patent US9629816B2, “Small molecule therapeutic compounds targeting thioesterase deficiency disorders and methods of using the same” (The United States of America, as represented by the …, priority 2011, dated 2017):
# Experiments:
# PPT1-KO mice [1] = assay: TEM analysis of GRODs in brain cells of PPT1-KO mice; type: in vivo, mouse; conditions: PPT1-KO mice treated from 3 to 6 months of age, 1 mM in drinking water (FIG. 12)
# Method: All animal experiments were performed according to the institutional guidelines after an animal protocol was approved by the Animal Care and Use Committee of the National Institute of Child Health and Development, National Institutes of Health. PPT1-KO mice (a gift from Dr. S. L. Hofmann, University of Texas Southwestern Medical Center at Dallas, Dallas, Tex., USA) were generated by targeted disruption of the last exon in the PPT1 gene in embryonic stem (ES) cells. These mice were subsequently backcrossed for 10 generations with wild type C57BL/6 mice in order to obtain congenic C57 background and a breeding pair was provided by Dr. Mark Sands to start the inventors' colony. Animals were housed and maintained in a pathogen-free facility. Three-month old PPT-KO mice were given NtBuHA in their drinking water (1 mM NtBuHA and 1 mM NaCl).
# Cortical tissue sections were prepared from wild-type mice and untreated- as well as NtBuHA-treated PPT1-KO littermates. Cortical tissues (approximately 1 mm^3) were dissected from those animals, fixed in 2.5% glutaradlehyde in 0.1M sodium cacodylate buffer, pH 7.4 followed by three washing in 0.1 M sodium cacodylate buffer at room temperature. […]
# PPT1-KO mice [2] = assay: Western blot of ER-stress and oxidative-stress markers in brain lysates of PPT1-KO mice; type: in vivo, mouse
# Method: Western blot analysis was performed as using standard methodology. Briefly 30 μg of protein was resolved in 4-12% Bis tris gel (Invitrogen) and electro-transferred in PVDF membrane. The membranes were blocked with 5% non fat dried milk for 1 hour at room temperature and were then probed overnight with primary antibody at 4 C. After washing the blots were incubated with horseradish peroxidase conjugated secondary antibody (Santacruz Biotechnology) for 1 hour at room temperature and developed using enhanced chemiluminescences detection reagents (Pierce). Primary antibodies used in this study were caspase-3, caspase-9 (cell signaling) SOD2, catalase, β-Actin (US Biologicals).
# It has previously reported that endoplasmic reticulum (ER-) and oxidative-stress contribute to neuropathology in INCL patients. […] Therefore, the inventors sought to determine whether NtBuHA-treatment of PPT1-KO mice ameliorate the ER- and oxidative-stress in brain tissues of these mice. Accordingly, the levels of ER-stress markers Grp-78, Grp-94 and ATF6 were determined by Western blot analysis of brain lysates. […] Western blot analysis of brain lysates from NtBuHA-treated and untreated PPT1-KO mice was also performed to determine the levels of superoxide dismutase-2 (SOD2) and catalase, which increases with elevated oxidative-stress.
# INCL fibroblasts = assay: TEM analysis of GRODs in cultured INCL fibroblasts; type: cell-based, human; conditions: 250 μM for 3 weeks vs untreated fibroblasts (FIG. 10)
# Method: Transmission electron microsocopy (TEM) of INCL lymphoblasts and fibroblasts was performed. Briefly, cells were first treated with 250 μM NtBuHA for 3 weeks. Medium was replaced with fresh 250 μM of NtBuHA at every 72 hours. After treatment, cells were fixed with 2.5% glutaraldehyde in sodium phosphate buffer, washed three times with Millonig's phosphate buffer and stained with 2.5% uranyl acetate. Ultra-thin sections were then prepared using AO Reichert Ultracut ultramicrotome, stained with lead citrate and examined by using Zeiss EM10 CA.
# Accordingly, untreated- and NtBuHA-treated cultured INCL lymphoblasts were analyzed using TEM.
# INCL lymphoblasts = assay: H2O2-induced apoptosis in INCL lymphoblasts (annexin V, FACS); type: cell-based, human; conditions: 1 mM NtBuHA 12 hours
# Method: To evaluate whether NtBuHA protects against oxidative stress-induced apoptosis in INCL lymphoblasts the cells were treated with 1 mM NtBuHA for 12 hours and then incubated with 500 μM H2O2 for 3 hours in presence or absence of NtBuHA (1 mM). Untreated INCL lymphoblasts were also treated with H2O2 for 3 hours. For the detection of apoptosis the cells were stained with annexin V using Apoptosis detection kit (Biovision) and analyzed by FACS (Guava EasyCyte Mini System, Millipore).
# Moreover, in these cells antisense-mediated inhibition of PPT1 leads to increased apoptosis. […] In addition, increased neuronal apoptosis in the brain of PPT1-KO mice has also been reported. […] Thus, the inventors sought to determine whether the NtBuHA-treatment protects cultured immortalized INCL lymphoblasts from oxidative-stress mediated apoptosis. Cultured lymphoblasts from INCL patients were chosen because PPT1 is expressed in all tissues and PPT 1-deficiency in cultured lymphoblasts and fibroblasts from INCL patients show virtually identical pathological changes (accumulation of ceroid, GRODs and increased apoptosis) as are found in postmortem neuronal tissues from such patients. […] Apoptosis of the H2O2-treated cells was then quantitated by florescence activated cell sorting (FACS) analysis.
structure (smiles),measurement,setting,value
"CC(C)(C)NO [NtBuHA, N-(tert-Butyl)hydroxylamine]",GRODs in brain cells,PPT1-KO mice [1],markedly reduced number of GRODs
same,levels of SOD2 and catalase,PPT1-KO mice [2]; brain lysates vs untreated PPT1-KO mice (FIG. 14B),significantly reduced the levels of both SOD2 and catalase
same,"levels of ER-stress markers Grp-78, Grp-94 and ATF6",PPT1-KO mice [2]; brain tissues (FIG. 14A),levels of all three ER-stress markers were reduced
same,GRODs in INCL fibroblasts,INCL fibroblasts,significantly lower number of GRODs with markedly reduced size and density
same,"H2O2-induced apoptosis, pre- and co-treated cells",INCL lymphoblasts; then 500 μM H2O2 3 hours in presence of NtBuHA (FIG. 15),no alteration in apoptosis above the base level
same,"H2O2-induced apoptosis, pretreated cells",INCL lymphoblasts; then 500 μM H2O2 3 hours without NtBuHA (FIG. 15),failed to induce apoptosis above the base level
